Test results reported in paper PMC8980233, “Differentiating the Neuropharmacological Properties of Nicotinic Acetylcholine Receptor-Activating Alkaloids” (Frontiers in Pharmacology, 2022).
Structures can show the parent of a compound that is named as a salt.

What was measured:
C57Bl/6 mice = assay: Tolerability test (body weight, body temperature, passive signs, manipulation responses); details: for tolerability: highest dose 10 mg/kg i.p.; for BT (°C) naïve / Manipulations naïve / Passive naïve: baseline; for BW Day 1 / BW Day 2: mean ± SD
Experimental: In brief, mice were single-housed prior to the test and evaluated for baseline body weight, body temperature, and other parameters. […] On day 1, the mice were i. p. injected with saline (vehicle) or a test compound at 10 ml/kg body weight. Then, body temperature was measured at 15 min, 4 h, and 24 h and body weight on days 1 and 2. Neurological and motor parameters were evaluated at 15 min, 2 h, and 4 h after administration. The list of parameters is provided in Supplementary Figure S1 in Supplementary Material S1.
In addition, within 5 min after the 15-min observation period, mice were placed in open-field chambers for 30 min to determine their general motor activity (distance traveled), ambulatory time, and number of rears. The open-field chambers were made of Plexiglas (27.3 × 27.3 × 20.3 cm; Med Associates Inc, St Albans, VT, United States) surrounded by infrared photobeam sources (16 × 16 × 16 beams). Horizontal activity (distance and time traveled) and vertical activity (number and frequency of rears) were measured by consecutive beam breaks. At the end of each open-field test session, the chambers were thoroughly cleaned with NOLVASAN® solution (Zoetis Services LLC, Parsippany, NJ, United States). Four mice were used per treatment condition. Mice were terminated after completion of the last tolerability observation.
All compounds were diluted in saline, and the pH was adjusted to approximately 7.0 with HCl or NaOH on the day of the experiment. […] The doses were calculated based on the free base molecular weight of the compounds.
For the tolerability tests, passive signs and manipulation responses were analyzed for effects of the treatment by the Kruskal–Wallis test. Body temperature and body weight data were analyzed by two-way repeated measures analysis of variance (ANOVA). The total distance and time traveled and number and frequency of rears in the open-field activity test were analyzed by one-way ANOVA, followed by the Tukey post-hoc test. For the analyses of the zebrafish NTT data, one-way ANOVA was used, followed by Dunnett’s multiple comparison test, if it passed the Shapiro-Wilk normality test. […] An effect was considered significant if p < 0.05. The half maximal effective concentration (EC50) and half-maximal inhibitory concentration (IC50) for the receptor pharmacology and neurotransmitter release assay were determined by using nonlinear regression analysis. Statistical analyses were conducted using GraphPad Prism.

[1] = test system: dopamine release from striatal synaptosomes; assay: In vitro [3H]dopamine release from crude striatal synaptosomes; assay type: biochemical, rat; details: for EC50: striatal synaptosomes
Experimental: In brief, male Sprague Dawley rats (200–225 g) were terminated by cervical dislocation followed by decapitation. The striatums or hippocampi were dissected and homogenized in ice-cold 0.32 M sucrose using a Dounce homogenizer. The homogenates were centrifuged at 100 x g for 5 min to pellet cell debris. The supernatants were collected and centrifuged at 17,000 x g for 10 min at 4°C to pellet crude synaptosomes.
The [^3H]norepinephrine- or [^3H]dopamine-treated crude synaptosomes were loaded onto closed filter chambers containing Whatman® Grade GF/C Glass Microfiber filters (Sigma-Aldrich, Merck KGaA, Darmstadt, Germany) and placed in a superfusion system. […] To ensure an even flow over the synaptosomal bed, trapped air bubbles were removed from the filters prior to collection of the fractions. After a superfusion period of 40 min, three basal fractions (1.5 ml/fraction) were collected first, followed by three fractions (1.5 ml/fraction) containing the test compound. Two additional fractions were collected in the presence of 30 mM KCl to depolarize the synaptosomes. […] Once all fractions were collected, the filters holding the crude synaptosome samples were removed and dried overnight at room temperature. On the following day, the scintillation cocktail was added and the filters were counted to determine residual radioactivity.
(§1) Compound-evoked release of neurotransmitters was calculated by subtracting the counts per minute (CPM) in the two basal fractions collected immediately prior to compound addition from those in the two fractions collected immediately following compound addition. The compound-evoked release was then expressed as a percentage of the basal release from that chamber. Potassium-evoked release was calculated by subtracting the CPM in the fraction immediately prior to KCl addition from the CPM in the […] immediately following potassium addition. Stimulated release was calculated as the percentage of basal release for that chamber. The increase in stimulated release above the baseline (no compound) release for that experimental run was determined, and the latter values were plotted on the graphs. Dose–response curves were determined using non-linear curve fitting in Prism (GraphPad Software, Inc, San Diego, CA, United States). All experiments were repeated at least three times.

[2] = test system: norepinephrine release from hippocampal synaptosomes; assay: In vitro [3H]norepinephrine release from crude hippocampal synaptosomes; assay type: biochemical, rat
Experimental: In vitro neurotransmitter assays using crude synaptosome preparations were conducted by Gifford Biosciences Limited (Birmingham, UK) based on the previously described protocols ([Clarke and Reuben, 1996]; [Gifford et al., 2000]). In brief, male Sprague Dawley rats (200–225 g) were terminated by cervical dislocation followed by decapitation. The striatums or hippocampi were dissected and homogenized in ice-cold 0.32 M sucrose using a Dounce homogenizer. The homogenates were centrifuged at 100 x g for 5 min to pellet cell debris. The supernatants were collected and centrifuged at 17,000 x g for 10 min at 4°C to pellet crude synaptosomes. The pellets were resuspended in 5 ml Krebs buffer, pH 7.4 (in mM (pH 7.4): 120 NaCl, 3.3 KCl, 1.2 MgSO4, 1.3 CaCl2, 1.2 K2HPO4, 25 HEPES, 11 glucose, 0.01 ascorbic acid, 0.025 pargyline, and 0.1% BSA containing 2 μCi/ml [^3H]norepinephrine for hippocampal synaptosomes or 1 μCi/ml [^3H]dopamine for striatal synaptosomes and incubated for 15 min at 35°C with gentle shaking.
The [^3H]norepinephrine- or [^3H]dopamine-treated crude synaptosomes were loaded onto closed filter chambers containing Whatman® Grade GF/C Glass Microfiber filters (Sigma-Aldrich, Merck KGaA, Darmstadt, Germany) and placed in a superfusion system. Preoxygenated Krebs buffer was perfused through the chambers at a rate of 1 ml/min at 37 °C using an 8-channel peristaltic pump. To ensure an even flow over the synaptosomal bed, trapped air bubbles were removed from the filters prior to collection of the fractions. After a superfusion period of 40 min, three basal fractions (1.5 ml/fraction) were collected first, followed by three fractions (1.5 ml/fraction) containing the test compound. Two additional fractions were collected in the presence of 30 mM KCl to depolarize the synaptosomes. A 0.4-ml aliquot of each fraction was then transferred to a counting plate, and a scintillation cocktail was added to measure the radioactivity using a Wallac® TriLux 1450 MicroBeta counter (PerkinElmer Life Sciences, Zaventem, Belgium). Once all fractions were collected, the filters holding the crude synaptosome samples were removed and dried overnight at room temperature. On the following day, the scintillation cocktail was added and the filters were counted to determine residual radioactivity.
as §1

[3] = test system: zebrafish (Danio rerio; strain AB); assay: Zebrafish novel tank test (NTT)
Experimental: Adult male and female wild-type zebrafish were treated with the compounds for 20 min in a final volume of 50 ml in a 250-ml treatment beaker one fish at a time. The fish were briefly rinsed in fresh system water, and then immediately transferred to a trapezoidal tank (14.6 cm height x 5.5 cm width x 27.9 cm top length and x 23.6 cm bottom length) filled with 1.5 L system water. The behavior of the fish was monitored for the next 5 min by using the Noldus EthoVision XT system (Wageningen, Netherlands), with the camera placed approximately 1 m from the test tank. The part of the tank filled with water (11.5 cm height) was virtually divided into top, center, and bottom of equal heights (approximately 3.8 cm per segment) for the analysis. The average time spent at the top and bottom portions of the tank was analyzed to determine the anxiety-like behavior of fish. The average total distance travelled and freezing time were calculated to determine the effects of the compounds on the general behavior of fish. Freezing was defined by a complete cessation of movement except for gills and eyes ([Kalueff et al., 2013]). A minimum of 12 fish (6 females and 6 males) per condition were used for the study. The experimenter was blind to the test conditions.
If not, the dose was reduced until no obvious signs of tolerability problems were observed. […] The concentrations were calculated based on the free base molecular weight. Buspirone—a clinical anxiolytic drug used acutely and chronically to investigate the change in the anxiety-like behavior ([Maximino, et al., 2011]; [Maximino, et al., 2013])—was included as a positive control.

Compound: O=C(c1ccc(Cl)o1)N1CC2CNCC2C1 (stereo not drawn) [AZD1446, 3-(5-chloro-2-furoyl)-3,7-diazabicyclo[3.3.0]octane]
- tolerability (C57Bl/6 mice): well tolerated
- EC50 [1]: 8.4 µM
- change in norepinephrine release [2]: negligible change

Compound: O=C1CC2(CCCC2)CC(=O)N1CCCCN1CCN(c2ncccn2)CC1 [buspirone, buspirone hydrochloride]
- freezing time ([3]; 100 mg/L): increased
- total distance traveled ([3]; 100 mg/L): decreased
- time spent at the top ([3]; all three doses tested (10, 30, and 100 mg/L)): increased the time spent at the top
- time spent at the bottom ([3]; middle two doses (10 and 30 mg/L)): reduced the time spent at the bottom

Compound: CC(=O)OCC[N+](C)(C)C [acetylcholine]
- EC50 [1]: 0.27 µM
- EC50 ([2]; hippocampal synaptosomes): 13.5 µM

Compound: O=C(N[C@H]1CN2CCC1CC2)c1ccc(Cl)cc1 [PNU282987]
- BT (°C) naïve (C57Bl/6 mice; 1 mg/kg group): 36.48 ± 0.38 °C
- Manipulations naïve (C57Bl/6 mice; 1 mg/kg group): 2.00 ± 1.63
- Passive naïve (C57Bl/6 mice; 1 mg/kg group): 0.25 ± 0.50
- BT (°C) 15min (C57Bl/6 mice; 1 mg/kg i.p.): 38.13 ± 0.15 °C
- BT (°C) 4hr (C57Bl/6 mice; 1 mg/kg i.p.): 36.60 ± 0.18 °C
- BT (°C) 24hr (C57Bl/6 mice; 1 mg/kg i.p.): 36.85 ± 0.66 °C
- Manipulations 15min (C57Bl/6 mice; 1 mg/kg i.p.): 1.25 ± 1.26
- Manipulations 2hr (C57Bl/6 mice; 1 mg/kg i.p.): 0.75 ± 0.50
- Manipulations 4hr (C57Bl/6 mice; 1 mg/kg i.p.): 0.75 ± 0.96
- Passive 15min (C57Bl/6 mice; 1 mg/kg i.p.): 0.50 ± 0.58
- Passive 2hr (C57Bl/6 mice; 1 mg/kg i.p.): 0.00 ± 0.00
- Passive 4hr (C57Bl/6 mice; 1 mg/kg i.p.): 0.00 ± 0.00
- BW Day 1 (C57Bl/6 mice; 1 mg/kg i.p.): 24.03 ± 2.46
- BW Day 2 (C57Bl/6 mice; 1 mg/kg i.p.): 23.78 ± 2.61
- BT (°C) naïve (C57Bl/6 mice; 3 mg/kg group): 36.50 ± 0.24 °C
- Manipulations naïve (C57Bl/6 mice; 3 mg/kg group): 0.75 ± 0.96
- Passive naïve (C57Bl/6 mice; 3 mg/kg group): 0.25 ± 0.50
- BT (°C) 15min (C57Bl/6 mice; 3 mg/kg i.p.): 37.85 ± 0.54 °C
- BT (°C) 4hr (C57Bl/6 mice; 3 mg/kg i.p.): 36.63 ± 0.21 °C
- BT (°C) 24hr (C57Bl/6 mice; 3 mg/kg i.p.): 36.40 ± 0.12 °C
- Manipulations 15min (C57Bl/6 mice; 3 mg/kg i.p.): 0.75 ± 0.96
- Manipulations 2hr (C57Bl/6 mice; 3 mg/kg i.p.): 0.50 ± 0.58
- Manipulations 4hr (C57Bl/6 mice; 3 mg/kg i.p.): 0.25 ± 0.50
- Passive 15min (C57Bl/6 mice; 3 mg/kg i.p.): 0.50 ± 0.58
- Passive 2hr (C57Bl/6 mice; 3 mg/kg i.p.): 0.00 ± 0.00
- Passive 4hr (C57Bl/6 mice; 3 mg/kg i.p.): 0.00 ± 0.00
- BW Day 1 (C57Bl/6 mice; 3 mg/kg i.p.): 23.38 ± 0.54
- BW Day 2 (C57Bl/6 mice; 3 mg/kg i.p.): 23.47 ± 0.57
- BT (°C) naïve (C57Bl/6 mice; 10 mg/kg group): 36.73 ± 1.13 °C
- Manipulations naïve (C57Bl/6 mice; 10 mg/kg group): 1.25 ± 0.96
- Passive naïve (C57Bl/6 mice; 10 mg/kg group): 0.25 ± 0.50
- BT (°C) 15min (C57Bl/6 mice; 10 mg/kg i.p.): 37.73 ± 0.46 °C
- BT (°C) 4hr (C57Bl/6 mice; 10 mg/kg i.p.): 36.83 ± 0.59 °C
- BT (°C) 24hr (C57Bl/6 mice; 10 mg/kg i.p.): 36.10 ± 0.52 °C
- Manipulations 15min (C57Bl/6 mice; 10 mg/kg i.p.): 0.50 ± 0.58
- Manipulations 2hr (C57Bl/6 mice; 10 mg/kg i.p.): 0.25 ± 0.50
- Manipulations 4hr (C57Bl/6 mice; 10 mg/kg i.p.): 0.50 ± 0.58
- Passive 15min (C57Bl/6 mice; 10 mg/kg i.p.): 0.00 ± 0.00
- Passive 2hr (C57Bl/6 mice; 10 mg/kg i.p.): 0.00 ± 0.00
- Passive 4hr (C57Bl/6 mice; 10 mg/kg i.p.): 0.00 ± 0.00
- BW Day 1 (C57Bl/6 mice; 10 mg/kg i.p.): 23.62 ± 1.10
- BW Day 2 (C57Bl/6 mice; 10 mg/kg i.p.): 22.94 ± 1.25
- tolerability (C57Bl/6 mice): well tolerated
- dopamine release ([1]; at higher concentrations): 20–30%
- change in norepinephrine release [2]: negligible change
